Legend:
[1] = target: mDUSP-H1 (DUSP-H1 from monkeypox virus) (Monkeypox virus, UniProt A0A7H0DN78); assay: biochemical; type: biochemical
normal human cell lines = details: cited from earlier work
HEK293 = details: cited from earlier work
[2] = system: human dermal fibroblasts (HDF); details: cited from earlier work

mDUSP-H1 (DUSP-H1 from monkeypox virus), sequence (A0A7H0DN78 whole entry, looked up): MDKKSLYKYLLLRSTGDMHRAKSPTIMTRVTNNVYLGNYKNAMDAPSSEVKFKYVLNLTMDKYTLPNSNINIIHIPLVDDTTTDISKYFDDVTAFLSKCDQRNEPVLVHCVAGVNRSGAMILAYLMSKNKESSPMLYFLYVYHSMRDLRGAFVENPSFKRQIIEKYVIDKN

SMILES	mDUSP-H1 reactivity compared to the DMSO control [1]	IC50 [1] [µM]	also measured
O=c1c(O)c(-c2cc(O)c(O)c(O)c2)oc2cc(O)cc(O)c12 [Myricetin]	significantly reduced reactivity	–	IC50 (normal human cell lines): > 100 µM; IC50 (HEK293): > 100 µM; IC50 [2]: > 100 µM
C[C@@H]1O[C@@H](O[C@H]2[C@H](Oc3cc(O)c4c(c3)O[C@H](c3ccc(O)cc3)CC4=O)O[C@H](CO)[C@@H](O)[C@@H]2O)[C@H](O)[C@H](O)[C@H]1O [Naringin]	relatively unchanged	–	inhibitory activity against mDUSP-H1 (in words) [1]: little to no activity
O=C(O[C@@H]1Cc2c(O)cc(O)cc2O[C@@H]1c1cc(O)c(O)c(O)c1)c1cc(O)c(O)c(O)c1 [(−)-Epigallocatechin gallate]	significantly reduced reactivity	14 ± 0.35	–
O=c1cc(-c2ccccc2)oc2cc(O)c(O)c(O)c12 [Baicalein]	significantly reduced reactivity	11.2 ± 0.14	–
COc1cc2oc(-c3ccc(O)c(O)c3)cc(=O)c2c(O)c1OC [Cirsiliol]	relatively unchanged	–	–
O=c1cc(-c2ccc(O)cc2)oc2c(-c3c(O)cc(O)c4c(=O)cc(-c5ccc(O)cc5)oc34)c(O)cc(O)c12 [Cupressuflavone]	significantly reduced reactivity	11.1 ± 0.18	–
Oc1cc(O)c2c(c1)O[C@@H](c1cc(O)c(O)c(O)c1)[C@H](O)C2 [(−)-Gallocatechin]	significantly reduced reactivity	9.56 ± 0.32	IC50 (normal human cell lines): > 100 µM; non-toxic concentration (normal human cell lines): ≤ 100 µM
COc1ccc(-c2cc(=O)c3c(O)c(OC)c(O[C@@H]4O[C@H](CO[C@@H]5O[C@@H](C)[C@H](O)[C@@H](O)[C@H]5O)[C@@H](O)[C@H](O)[C@H]4O)cc3o2)cc1 [Pectolinarin]	relatively unchanged	–	–
COc1ccc(-c2cc(=O)c3c(O)cc(O)cc3o2)cc1O [Diosmetin]	relatively unchanged	–	inhibitory activity against mDUSP-H1 (in words) [1]: no significant inhibitory activity
O=c1c(O)c(-c2ccc(O)cc2)oc2c(O)c(O)cc(O)c12 [Herbacetin]	significantly reduced reactivity	12.71 ± 0.08	–
C[C@@H]1O[C@@H](Oc2c(-c3ccc(O)c(O)c3)oc3cc(O)cc(O)c3c2=O)[C@H](O)[C@H](O)[C@H]1O [Quercitrin]	relatively unchanged	–	inhibitory activity against mDUSP-H1 (in words) [1]: minimal inhibition

Reference: article PMC12344671 (Journal of Enzyme Inhibition and Medicinal Chemistry, 2025)
